Assays:
Orai1/STIM1 = molecular target: T1, Orai1/STIM1 (Homo sapiens, UniProt Q96D31); test: Fluorescence-based assay of store-operated calcium entry in Orai1/STIM1 stable cells; format: cell-based; design: key to Orai1/STIM1 (IC50, μmol): A, IC50 < 0.6 μM; B, IC50 = 0.6-1.2 μM; C, IC50 > 1.2 μM; — no fit; conditions: HEK-293 cells stably expressing human STIM1 and Orai1, inhibition of Peak-Basal fluorescence signal after calcium addition; for IC50: read-out: Orai1/STIM1 (IC50, μmol)
T1 construct: c-myc (C); expressed in transfected cells; host or cells: HEK-293 cells stably expressing recombinant human STIM1 and Orai1
T1 sequence (Q96D31 whole entry): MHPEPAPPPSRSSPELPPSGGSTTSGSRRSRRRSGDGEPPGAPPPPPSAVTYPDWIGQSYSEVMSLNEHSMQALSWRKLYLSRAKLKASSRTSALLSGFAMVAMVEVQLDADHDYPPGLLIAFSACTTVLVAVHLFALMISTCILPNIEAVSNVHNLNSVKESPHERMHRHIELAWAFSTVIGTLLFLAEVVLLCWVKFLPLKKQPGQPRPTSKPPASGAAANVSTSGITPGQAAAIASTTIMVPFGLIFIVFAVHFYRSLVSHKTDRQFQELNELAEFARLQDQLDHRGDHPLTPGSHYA
Description: (§1) Fluorescence-based assays are used for screening the compounds described herein, such as compounds of Formulas (I), (IA), (II), (IIA), (III), (IIIA), (IV), (IVA), (V), (VA), (VI), (VIA), (VII), (VIIA), (VIII), (VIIIA), (IX), (IXA), (X), (XI), (XIA), (XII), or (XIIA) which modulate intracellular calcium.
A. Fluorescence-Based Assay of Store-Operated Calcium Entry in Orai1/STIM1 Stable Cells.
Cells stably expressing recombinant human STIM1 and Orai1 are generated by transfecting a human Orai1 expression plasmid (pcDNA3.1-Orai1-cmyc) into HEK-293 cells stably overexpressing human STIM1 (Roos et al. 2005 JCB 169(3): 435-445). Colonies of cells stably expressing both STIM1 and Orai1 proteins are selected and then subcloned by limiting dilution. Cells were cultured at 37° C./6% CO2 in complete medium with 10% FBS and appropriate selection markers.
The day prior to performing the assay Orai1/STIM1 stable cells are plated in 50 μL of complete medium at 90-95% confluence in a 384 well plate. Cells are grown at 37° C./6% CO2 overnight. On the day of the assay, 1.5 μM fluo-4-AM (Invitrogen) in complete medium is added to the cells, which are then incubated for 1 hour at RT. Cells are washed once in Ca^2+-free HBSS (Hank's buffered saline solution) and 35 μl of Ca^2+-free HBSS is added to each well. Test compounds are added to wells in a 10 μL Ca^2+-free HBSS solution, prepared at 4.5× the desired final concentration, and incubated for 30 minutes at RT. The initial baseline fluorescence signal is then measured with a FLIPR^384 (Molecular Devices) plate reader. Calcium entry is initiated by adding 5 μl of 10×CaCl2 (10 mM) in HBSS, and changes in cellular fluorescence are measured with the FLIPR^384 plate reader. In each well, the magnitude of the fluorescence signal as a result of calcium entry into the cell is determined by calculating the difference between the peak fluorescence signal measured after calcium addition and the initial baseline fluorescence signal (designated Peak-Basal). IC50 values are typically calculated as the concentration that inhibited 50% of the Peak-Basal signal.

RBL-2H3 cells = test: Fluorescence-based assay of store-operated calcium entry in RBL-2H3 cells; format: cell-based, rat; design: key to RBL-2H3 (IC50, μmol): A, IC50 < 0.6 μM; B, IC50 = 0.6-1.2 μM; C, IC50 > 1.2 μM; — no fit; conditions: thapsigargin, inhibition of Upslope of fluorescence after calcium addition; for IC50: Rattus norvegicus, read-out: RBL-2H3 (IC50, μmol)
Procedure: as §1
B. Fluorescence-Based Assay of Store-Operated Calcium Entry in RBL-2H3 Cells.
RBL-2H3 cells are obtained from ATCC and maintained in complete medium with 10% FBS at 37° C./6% CO2.
The day prior to performing the assay, RBL-2H3 cells are plated in 50 μL of complete medium in a 384 well plate. Cells are grown at 37° C./6% CO2 overnight and grow to 50-60% confluence by the next day. On the assay day, 1.5 µM Fluo-4-AM dye (Invitrogen) in complete medium is added and incubated for 1 hour at RT. Cells are washed twice in Ca^2+-free HBSS buffer and 35 μL Ca^2+-free HBSS buffer is added to each well. 10 μL of a test compound prepared in a Ca^2+-free HBSS solution at 4.5× of the desired concentration is added to a well and incubated for 5 minutes at RT. 10 μL of thapsigargin prepared in a Ca^2+-free HBSS solution at 5.5× of the desired concentration (5.5 uM) is added to each well and incubated for an additional 25 minutes. The initial baseline fluorescence signal is measured with a FLIPR^384 (Molecular Devices) plate reader. 5 μL of 12× calcium in HBSS (12 mM) is added and changes in cellular fluorescence are measured with the FLIPR^384 plate reader. In each well, the change in the fluorescent signal as a function of time due to calcium entry into the cell is determined by calculating the difference between the fluorescent signal measured 7 seconds after calcium addition and the initial baseline fluorescence signal at time zero (t=0). This parameter is designated Upslope. The IC50 value is calculated as the concentration at which 50% of the Upslope is inhibited.

## Cn1nc(C(F)(F)F)cc1-c1cnc(OCc2c(F)cccc2Cl)nc1 [Compound 69]
Orai1/STIM1
  Orai1/STIM1 (IC50, μmol): —
RBL-2H3 cells
  RBL-2H3 (IC50, μmol): —

## Cc1cc2c(cc1-c1cnc(OCc3c(F)cccc3Cl)nc1)OC(F)(F)O2 [Compound 70]
Orai1/STIM1
  IC50: > 1200 nM
RBL-2H3 cells
  IC50: < 600 nM

## Cn1nc(C(F)(F)F)cc1-c1ccc(NC(=O)c2ccccc2F)nc1 [Compound 72, (2-fluorophenyl)-N-{5-[1-methyl-3-(trifluoromethyl)pyrazol-5-yl](2-pyridyl)}carboxamide]
Orai1/STIM1
  IC50: < 600 nM
RBL-2H3 cells
  IC50: < 600 nM

## Cn1nc(C(F)(F)F)cc1-c1ccc(NC(=O)c2c(F)cccc2F)nc1 [Compound 74, (2,6-difluorophenyl)-N-{5-[1-methyl-3-(trifluoromethyl)pyrazol-5-yl](2-pyridyl)}carboxamide]
Orai1/STIM1
  IC50: 600 to 1200 nM
RBL-2H3 cells
  IC50: < 600 nM

## Cn1nc(C(F)(F)F)cc1-c1cnc(NCc2c(F)cccc2F)cc1F [Compound 76, N-(2,6-difluorobenzyl)-4-fluoro-5-(1-methyl-3-(trifluoromethyl)-1H-pyrazol-5-yl)pyridin-2-amine]
Orai1/STIM1
  IC50: > 1200 nM
RBL-2H3 cells
  IC50: 600 to 1200 nM

## Cn1nc(C(F)(F)F)cc1-c1ccc(NCc2c(F)ccc(F)c2F)nc1 [Compound 78, 5-(1-methyl-3-(trifluoromethyl)-1H-pyrazol-5-yl)-N-(2,3,6-trifluorobenzyl)pyridin-2-amine]
Orai1/STIM1
  IC50: < 600 nM
RBL-2H3 cells
  IC50: < 600 nM

## Cn1nc(C(F)(F)F)cc1-c1ccc(NCc2ccc(F)cc2F)nc1 [Compound 80, 5-(1-methyl-3-(trifluoromethyl)-1H-pyrazol-5-yl)-N-(2,4-difluorobenzyl)pyridin-2-amine]
Orai1/STIM1
  IC50: < 600 nM
RBL-2H3 cells
  IC50: < 600 nM

## Cn1nc(C(F)(F)F)cc1-c1ccc(NCc2c(F)cc(F)cc2F)nc1 [Compound 82, 5-(1-methyl-3-(trifluoromethyl)-1H-pyrazol-5-yl)-N-(2,4,6-trifluorobenzyl)pyridin-2-amine]
Orai1/STIM1
  IC50: < 600 nM
RBL-2H3 cells
  IC50: < 600 nM

## Cn1nc(C(F)(F)F)cc1-c1ccc(NCc2c(F)cncc2F)nc1 [Compound 84, N-((3,5-difluoropyridin-4-yl)methyl)-5-(1-methyl-3-(trifluoromethyl)-1H-pyrazol-5-yl)pyridin-2-amine]
Orai1/STIM1
  IC50: < 600 nM
RBL-2H3 cells
  IC50: < 600 nM

## Cc1cccc(F)c1CNc1ccc(-c2cc(C(F)(F)F)nn2C)cn1 [Compound 86, N-(2-fluoro-6-methylbenzyl)-5-(1-methyl-3-(trifluoromethyl)-1H-pyrazol-5-yl)pyridin-2-amine]
Orai1/STIM1
  IC50: < 600 nM
RBL-2H3 cells
  IC50: < 600 nM

## Cn1nc(C(F)(F)F)cc1-c1cnc(NCc2ccccc2F)nc1 [Compound 96, N-(2-fluorobenzyl)-5-(1-methyl-3-(trifluoromethyl)-1H-pyrazol-5-yl)pyrimidin-2-amine]
Orai1/STIM1
  IC50: < 600 nM
RBL-2H3 cells
  IC50: < 600 nM

## Fc1cccc(F)c1CNc1ccc(-n2nc(C(F)(F)F)cc2C(F)(F)F)cn1 [Compound 100, 5-(3,5-bis(trifluoromethyl)-1H-pyrazol-1-yl)-N-(2,6-difluorobenzyl)pyridin-2-amine]
Orai1/STIM1
  IC50: < 600 nM
RBL-2H3 cells
  IC50: < 600 nM

## Fc1cc(F)c(CNc2ccc(-n3nc(C(F)(F)F)cc3C(F)(F)F)cn2)c(F)c1 [Compound 102, 5-(3,5-bis(trifluoromethyl)-1H-pyrazol-1-yl)-N-(2,4,6-trifluorobenzyl)pyridin-2-amine]
Orai1/STIM1
  IC50: < 600 nM
RBL-2H3 cells
  IC50: < 600 nM

## Cc1nc(C(F)(F)F)cn1-c1ccc(NCc2c(F)cccc2F)nc1 [Compound 106, N-(2,6-difluorobenzyl)-5-(2-methyl-4-(trifluoromethyl)-1H-imidazol-1-yl)pyridin-2-amine]
Orai1/STIM1
  IC50: < 600 nM
RBL-2H3 cells
  IC50: < 600 nM

## Cc1nc(C(F)(F)F)cn1-c1ccc(NCc2c(F)cc(F)cc2F)nc1 [Compound 108, 5-(2-methyl-4-(trifluoromethyl)-1H-imidazol-1-yl)-N-(2,4,6-trifluorobenzyl)pyridin-2-amine]
Orai1/STIM1
  IC50: 600 to 1200 nM
RBL-2H3 cells
  IC50: < 600 nM

## Cc1nc(C(F)(F)F)cn1-c1ccc(NCc2c(F)cncc2F)nc1 [Compound 110, N-((3,5-difluoropyridin-4-yl)methyl)-5-(2-methyl-4-(trifluoromethyl)-1H-imidazol-1-yl)pyridin-2-amine]
Orai1/STIM1
  Orai1/STIM1 (IC50, μmol): —
RBL-2H3 cells
  IC50: > 1200 nM

## Cc1c(F)cccc1CNc1ccc(-n2cc(C(F)(F)F)nc2C)cn1 [Compound 112, N-(3-fluoro-2-methylbenzyl)-5-(2-methyl-4-(trifluoromethyl)-1H-imidazol-1-yl)pyridin-2-amine]
Orai1/STIM1
  Orai1/STIM1 (IC50, μmol): —
RBL-2H3 cells
  IC50: 600 to 1200 nM

## Cc1cc(C(F)(F)F)nn1-c1ccc(NCc2c(F)cccc2F)nc1 [Compound 116, N-(2,6-difluorobenzyl)-5-(5-methyl-3-(trifluoromethyl)-1H-pyrazol-1-yl)pyridin-2-amine]
Orai1/STIM1
  IC50: < 600 nM
RBL-2H3 cells
  IC50: < 600 nM

## Cc1cc(C(F)(F)F)nn1-c1ccc(NCc2c(F)cc(F)cc2F)nc1 [Compound 118, 5-(5-methyl-3-(trifluoromethyl)-1H-pyrazol-1-yl)-N-(2,4,6-trifluorobenzyl)pyridin-2-amine]
Orai1/STIM1
  IC50: < 600 nM
RBL-2H3 cells
  IC50: < 600 nM

## COc1cc(F)c(CNc2ccc(-n3nc(C(F)(F)F)cc3C)cn2)c(F)c1 [Compound 120, N-(2,6-difluoro-4-methoxybenzyl)-5-(5-methyl-3-(trifluoromethyl)-1H-pyrazol-1-yl)pyridin-2-amine]
Orai1/STIM1
  IC50: 600 to 1200 nM
RBL-2H3 cells
  IC50: < 600 nM

## Cc1c(F)cccc1CNc1ccc(-n2nc(C(F)(F)F)cc2C)cn1 [Compound 122, N-(3-fluoro-2-methylbenzyl)-5-(5-methyl-3-(trifluoromethyl)-1H-pyrazol-1-yl)pyridin-2-amine]
Orai1/STIM1
  Orai1/STIM1 (IC50, μmol): —
RBL-2H3 cells
  IC50: < 600 nM

## Cc1cc(C(F)(F)F)nn1-c1ccc(NCc2c(F)cncc2F)nc1 [Compound 124, N-((3,5-difluoropyridin-4-yl)methyl)-5-(5-methyl-3-(trifluoromethyl)-1H-pyrazol-1-yl)pyridin-2-amine]
Orai1/STIM1
  IC50: 600 to 1200 nM
RBL-2H3 cells
  IC50: < 600 nM

## Fc1cccc(F)c1CNc1ncc(Oc2ccccc2C(F)(F)F)cn1 [Compound 126, N-(2,6-difluorobenzyl)-5-(2-(trifluoromethyl)phenoxy)pyrimidin-2-amine]
Orai1/STIM1
  IC50: < 600 nM
RBL-2H3 cells
  IC50: < 600 nM

## COc1cc(F)c(CNc2ncc(-c3cc4c(cc3C)OC(F)(F)O4)cn2)c(F)c1 [Compound 127, N-(2,6-difluoro-4-methoxybenzyl)-5-(2,2-difluoro-6-methylbenzo[d][1,3]dioxol-5-yl)pyrimidin-2-amine]
Orai1/STIM1
  IC50: < 600 nM
RBL-2H3 cells
  IC50: < 600 nM

## COc1cc(C)c(-c2cnc(NCc3c(F)cccc3F)nc2)cn1 [Compound 128, N-(2,6-difluorobenzyl)-5-(6-methoxy-4-methylpyridin-3-yl)pyrimidin-2-amine]
Orai1/STIM1
  IC50: < 600 nM
RBL-2H3 cells
  IC50: < 600 nM

## Cc1cc(Cl)ncc1-c1cnc(NCc2c(F)cc(Cl)cc2F)nc1 [Compound 129, N-(4-chloro-2,6-difluorobenzyl)-5-(6-chloro-4-methylpyridin-3-yl)pyrimidin-2-amine]
Orai1/STIM1
  IC50: < 600 nM
RBL-2H3 cells
  IC50: < 600 nM
